This is an account of results in patent US7795444B2, “Human protein tyrosine phosphatase inhibitors and methods of use” (Warner Chilcott Company, priority 2006, dated 2010).

Assay [1] deals with HPTPβ (Homo sapiens, UniProt P23467). Kind of assay: HPTPβ inhibition, IC50 (Table A). It counts as biochemical.
The target in assay [2] is T1, PTP1B (Homo sapiens, UniProt P18031).
T1 sequence (P18031 1-435): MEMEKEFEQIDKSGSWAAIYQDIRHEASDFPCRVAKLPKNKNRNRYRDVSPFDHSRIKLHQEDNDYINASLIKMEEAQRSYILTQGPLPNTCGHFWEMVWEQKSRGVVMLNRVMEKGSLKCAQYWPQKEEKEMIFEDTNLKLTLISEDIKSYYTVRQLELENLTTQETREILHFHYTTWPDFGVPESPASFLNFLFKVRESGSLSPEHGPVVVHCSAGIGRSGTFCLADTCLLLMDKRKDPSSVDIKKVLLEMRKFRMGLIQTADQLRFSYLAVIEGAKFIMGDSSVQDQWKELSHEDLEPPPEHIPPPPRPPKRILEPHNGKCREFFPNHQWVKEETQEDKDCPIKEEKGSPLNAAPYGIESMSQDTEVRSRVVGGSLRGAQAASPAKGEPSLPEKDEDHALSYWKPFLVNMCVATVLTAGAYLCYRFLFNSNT
Kind of assay: PTP1B inhibition, IC50 (Table A). The assay is classed as biochemical.

HPTPβ, sequence (P23467 23-1997): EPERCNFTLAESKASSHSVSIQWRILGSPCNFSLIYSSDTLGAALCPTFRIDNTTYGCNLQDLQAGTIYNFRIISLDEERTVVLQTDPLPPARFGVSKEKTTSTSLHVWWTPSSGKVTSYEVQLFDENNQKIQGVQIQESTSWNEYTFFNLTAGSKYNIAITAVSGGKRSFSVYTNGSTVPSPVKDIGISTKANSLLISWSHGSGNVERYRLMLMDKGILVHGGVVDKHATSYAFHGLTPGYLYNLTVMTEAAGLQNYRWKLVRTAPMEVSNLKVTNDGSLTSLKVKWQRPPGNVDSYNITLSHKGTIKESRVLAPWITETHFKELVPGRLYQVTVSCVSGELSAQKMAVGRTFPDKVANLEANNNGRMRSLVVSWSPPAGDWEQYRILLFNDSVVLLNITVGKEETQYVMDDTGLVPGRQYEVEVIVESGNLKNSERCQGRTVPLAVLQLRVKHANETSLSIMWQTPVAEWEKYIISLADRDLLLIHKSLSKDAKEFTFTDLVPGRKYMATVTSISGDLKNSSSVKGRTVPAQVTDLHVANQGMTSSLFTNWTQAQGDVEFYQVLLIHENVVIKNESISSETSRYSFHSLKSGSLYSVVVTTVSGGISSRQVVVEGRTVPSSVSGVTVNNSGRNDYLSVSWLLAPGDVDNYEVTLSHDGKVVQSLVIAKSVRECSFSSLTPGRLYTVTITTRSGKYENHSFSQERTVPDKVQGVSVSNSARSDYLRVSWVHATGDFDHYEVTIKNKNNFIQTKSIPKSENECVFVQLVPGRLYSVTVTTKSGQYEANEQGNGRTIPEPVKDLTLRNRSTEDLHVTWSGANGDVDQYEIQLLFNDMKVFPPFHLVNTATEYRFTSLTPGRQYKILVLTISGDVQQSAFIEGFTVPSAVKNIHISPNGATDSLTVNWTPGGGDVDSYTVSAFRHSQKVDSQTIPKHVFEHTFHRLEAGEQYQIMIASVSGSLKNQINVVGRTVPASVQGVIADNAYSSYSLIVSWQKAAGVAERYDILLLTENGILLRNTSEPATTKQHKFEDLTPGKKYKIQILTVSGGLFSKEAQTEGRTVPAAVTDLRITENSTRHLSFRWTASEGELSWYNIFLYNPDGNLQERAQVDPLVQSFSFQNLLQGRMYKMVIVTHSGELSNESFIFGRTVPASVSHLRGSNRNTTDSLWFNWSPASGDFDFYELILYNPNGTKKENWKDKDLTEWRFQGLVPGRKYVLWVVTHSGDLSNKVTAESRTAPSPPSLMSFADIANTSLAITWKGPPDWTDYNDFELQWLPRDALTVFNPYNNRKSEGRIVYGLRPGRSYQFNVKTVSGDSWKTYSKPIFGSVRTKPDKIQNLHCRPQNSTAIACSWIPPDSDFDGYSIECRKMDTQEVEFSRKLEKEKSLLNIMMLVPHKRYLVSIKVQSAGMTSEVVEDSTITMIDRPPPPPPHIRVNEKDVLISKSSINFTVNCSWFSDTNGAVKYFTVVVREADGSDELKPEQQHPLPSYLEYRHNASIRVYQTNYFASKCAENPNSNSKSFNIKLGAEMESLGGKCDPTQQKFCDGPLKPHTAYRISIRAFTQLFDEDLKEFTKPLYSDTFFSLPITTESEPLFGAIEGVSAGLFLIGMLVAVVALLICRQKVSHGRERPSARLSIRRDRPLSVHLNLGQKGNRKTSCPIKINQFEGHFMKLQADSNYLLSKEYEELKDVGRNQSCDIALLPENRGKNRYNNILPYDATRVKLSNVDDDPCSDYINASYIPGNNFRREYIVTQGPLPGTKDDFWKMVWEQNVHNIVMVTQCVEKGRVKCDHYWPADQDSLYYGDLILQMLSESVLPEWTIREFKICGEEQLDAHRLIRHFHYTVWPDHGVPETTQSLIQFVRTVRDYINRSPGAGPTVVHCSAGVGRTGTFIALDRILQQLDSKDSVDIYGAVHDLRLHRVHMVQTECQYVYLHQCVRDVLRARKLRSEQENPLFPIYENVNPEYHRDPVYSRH

`CCc1csc([C@H](Cc2ccc(NS(=O)(=O)O)cc2)NC(=O)Cc2ccc(OC)c(OC)c2)n1` [(S)-4-(2-(2-(3,4-Dimethoxyphenyl)acetamido)-2-(4-ethylthiazol-2-yl)ethyl)-phenylsulfamic acid]: the results for the IC50 in assay [1] and in assay [2] were 0.028 µM and 15.5 µM, respectively.
`CCc1csc([C@H](Cc2ccc(NS(=O)(=O)O)cc2)NC(=O)Cc2cccc(F)c2F)n1` [(S)-4-(2-(2-(2,3-Difluorophenyl)acetamido)-2-(4-ethylthiazol-2-yl)ethyl)phenyl-sulfamic acid]: the results for the IC50 in assay [1] and in assay [2] were 0.028 µM and 5.36 µM, respectively.
On to `CCc1csc([C@H](Cc2ccc(NS(=O)(=O)O)cc2)NC(=O)Cc2ccccc2F)n1` [(S)-4-(2-(4-Ethylthiazol-2-yl)-2-(2-(2-fluorophenyl)acetamido)ethyl)phenyl-sulfamic acid], for which the IC50 (as a rule, the concentration needed to halve the response being measured) was 0.012 µM in assay [1] and 5.36 µM in assay [2].
On to `CCc1csc([C@H](Cc2ccc(NS(=O)(=O)O)cc2)NC(=O)CCc2ccc(OC)cc2)n1` [(S)-4-(2-(4-Ethylthiazol-2-yl)-2-(3-(4-methoxyphenyl)propanamido)ethyl)phenyl-sulfamic acid], for which the IC50 in assay [1] amounted to 0.006 µM; in assay [2], 16 µM.
Taken in the same sequence, the figures for `CCc1csc([C@H](Cc2ccc(NS(=O)(=O)O)cc2)NC(=O)CN2CCN(CC)C(=O)C2=O)n1` [(S)-4-{2-[2-(4-Ethyl-2,3-dioxopiperazin-1-yl)acetamido]-2-(4-ethylthiazol-2-yl)ethyl}phenylsulfamic acid] were 0.002 µM and 0.53 µM.
On to “(S)-4-(2-(4-Ethylthiazol-2-yl)-2-(2-(2-methoxyphenyl)acetamido)ethyl)phenyl-sulfamic acid”, for which the figures for the 50% inhibitory concentration (IC50) in assay [1] and in assay [2] were 0.014 µM and 11.7 µM, respectively.
`CCc1csc([C@H](Cc2ccc(NS(=O)(=O)O)cc2)NC(=O)CCc2cccc(OC)c2)n1` [(S)-4-(2-(4-Ethylthiazol-2-yl)-2-(3-(3-methoxyphenyl)propanamido)ethyl)phenyl-sulfamic acid]: the IC50 in assay [1] was found to be 0.01 µM; in assay [2], 20.6 µM.
For the compound `CCc1csc([C@H](Cc2ccc(NS(=O)(=O)O)cc2)NC(=O)Cc2cccc(O)c2)n1` [(S)-4-(2-(4-Ethylthiazol-2-yl)-2-(2-(3-hydroxyphenyl)acetamido)ethyl)phenyl-sulfamic acid], the IC50 is 0.04 µM in assay [1] and 6.57 µM in assay [2].
As to `CCc1csc([C@H](Cc2ccc(NS(=O)(=O)O)cc2)NC(=O)CCc2cccc(Cl)c2)n1` [(S)-4-(2-(3-(3-Chlorophenyl)propanamido)-2-(4-ethylthiazol-2-yl)ethyl)phenyl-sulfamic acid], the IC50 came out at 0.0002 µM in assay [1] and 15.3 µM in assay [2].
Consider `CCc1csc([C@H](Cc2ccc(NS(=O)(=O)O)cc2)NC(=O)Cc2cccc(OC)c2OC)n1` [(S)-4-(2-(2-(2,3-Dimethoxyphenyl)acetamido)-2-(4-ethylthiazol-2-yl)ethyl)-phenylsulfamic acid], for which the figures for the IC50 in assay [1] and in assay [2] were 0.037 µM and 25.4 µM, respectively.
For `CCc1csc([C@H](Cc2ccc(NS(=O)(=O)O)cc2)NC(=O)CCc2ccccc2OC)n1` [(S)-4-(2-(4-Ethylthiazol-2-yl)-2-(3-(2-methoxyphenyl)propanamido)ethyl)phenyl-sulfamic acid], the IC50 was 0.003 µM in assay [1] and 16.9 µM in assay [2].
With `CCc1csc([C@H](Cc2ccc(NS(=O)(=O)O)cc2)NC(=O)Cc2cccc(F)c2)n1` [(S)-4-(2-(4-Ethylthiazol-2-yl)-2-(2-(3-fluorophenyl)acetamido)ethyl)phenyl-sulfamic acid], the IC50 in assay [1] worked out at 0.0003 µM; in assay [2], 2.85 µM.
Regarding `CCc1csc([C@H](Cc2ccc(NS(=O)(=O)O)cc2)NC(=O)Cc2cccc(OC)c2)n1` [(S)-4-(2-(4-Ethylthiazol-2-yl)-2-(2-(3-methoxyphenyl)acetamido)ethyl)phenyl-sulfamic acid], the IC50 in assay [1] was determined as 0.008 µM; in assay [2], 4.05 µM.
Consider `CCc1csc([C@H](Cc2ccc(NS(=O)(=O)O)cc2)NC(=O)Cc2ccccc2Cl)n1` [(S)-4-(2-(2-(2-Chlorophenyl)acetamido)-2-(4-ethylthiazol-2-yl)ethyl)phenyl-sulfamic acid], for which the values for the IC50 in assay [1] and in assay [2] were 0.056 µM and 22.8 µM, respectively.
In the case of `CCc1csc([C@H](Cc2ccc(NS(=O)(=O)O)cc2)NC(=O)Cc2ccc(F)c(F)c2)n1` [(S)-4-(2-(2-(3,4-Difluorophenyl)acetamido)-2-(4-ethylthiazol-2-yl)ethyl)phenyl-sulfamic acid], the values for the IC50 in assay [1] and in assay [2] were 0.075 µM and 23.9 µM, respectively.
Take `CCc1csc([C@H](Cc2ccc(NS(=O)(=O)O)cc2)NC(=O)c2ccc3c(c2)OCO3)n1` [(S)-4-[2-(Benzo[d][1,3]dioxole-5-carboxamido)-2-(4-ethylthiazol-2-yl)ethyl]phenylsulfamic acid]: the IC50 amounted to 0.042 µM in assay [1] and 19 µM in assay [2].
Turning to `CCc1csc([C@H](Cc2ccc(NS(=O)(=O)O)cc2)NC(=O)Cn2cc(C)c(=O)[nH]c2=O)n1` [(S)-4-{2-(4-Ethylthiazol-2-yl)-2-[2-(5-methyl-2,4-dioxo-3,4-dihydropyrimidin-1(2H)-yl)acetamido]ethyl}phenylsulfamic acid], the IC50 in assay [1] turned out to be 0.002 µM; in assay [2], 0.254 µM.
With `CCc1csc([C@H](Cc2ccc(NS(=O)(=O)O)cc2)NC(=O)Cc2ccccc2)n1` [(S)-{4-[2-(4-Ethylthiazol-2-yl)-2-(phenylacetylamido)ethyl]-phenyl}sulfamic acid], the IC50 stood at 0.05 µM in assay [1] and 22.9 µM in assay [2].
On to `CCc1csc([C@H](Cc2ccc(NS(=O)(=O)O)cc2)NC(=O)CCc2ccccc2)n1` [(S)-4-(2-(4-Ethylthiazol-2-yl)-2-(3-phenylpropanamido)ethyl)phenylsulfamic acid], for which the IC50 is 0.002 µM in assay [1] and 10.4 µM in assay [2].
For the compound `CCc1csc([C@H](Cc2ccc(NS(=O)(=O)O)cc2)NC(=O)Cc2cccc(Cl)c2)n1` [(S)-4-(2-(2-(3-Chlorophenyl)acetamido)-2-(4-ethylthiazol-2-yl)ethyl)phenyl-sulfamic acid], the IC50 in assay [1] is 0.033 µM; in assay [2] it was 13.6 µM.
